Each block holds one compound with its values, some of them ahead of it.
Key:
[1] = target: T1, collagen solution (KAI, pH 7, PB buffer) (Bos taurus, UniProt P02453+P02465); assay: Influence of various sugars on gelation (fibrillogenesis time) of 3% collagen solution (Reference Example 3(1)); format: physicochemical; settings: collagen 3% [w/v]; sugar 0.05 to 0.5 M (monosaccharide), 0.05 to 0.25 M (disaccharide), 0.05 M raffinose, 0.05, 0.125 M stachyose; without degassing
T1 construct: atelocollagen obtained by treatment with a protease such as pepsin; KAI
Experimental: • (1) The kind and concentration of a sugar to be added were changed, and an ability of the sugar to suppress the gelation of a collagen solution was confirmed by measuring a fibrillogenesis time.
The collagen was prepared so that the final concentration was 3% [w/v]. KAI (pH 7, PB buffer) was used as the collagen. The kinds and final concentrations of the used sugars are as described below. • (i) Monosaccharide: Glucose or Fructose
0.05, 0.125, 0.25, 0.5 M • (ii) Disaccharide: sucrose or maltose
0.05, 0.125, 0.25 M • (iii) Trisaccharide: raffinose
0.05 M • (iv) Tetrasaccharide: stachyose
It should be noted that, in this reference example, measurements were carried out without degassing.

[2] = target: T1, collagen solution (KAI, pH 7, PB buffer); assay: Influence of maltotetraose and maltopentaose on gelation of collagen solution (Reference Example 4); format: physicochemical; settings: collagen 3% [w/v]; sugar 0.05, 0.125 M
Experimental: The kind and concentration of a sugar to be added were changed, and an ability of the sugar to suppress the gelation of a collagen solution was confirmed by measuring a fibrillogenesis time.
The collagen was prepared so that the final concentration was 3% [w/v]. KAI (pH 7, PB buffer) was used as the collagen. The kinds and final concentrations of the used sugars are as described below. • (i) Tetrasaccharide: maltotetraose
0.05, 0.125 M • (ii) Pentasaccharide: maltopentaose

[3] = target: T2, collagen solution (KOKEN ATELOCOLLAGEN IMPLANT) (Bos taurus, UniProt P02453+P02465); assay: Influence of sucrose, glucose and glucuronic acid on gelation of collagen solution (Reference Example 7); format: physicochemical; settings: sugar 0.01 M, collagen 3% [w/v], pH 7.4, 37° C., absorbance at 400 nm
T2 construct: atelocollagen obtained by treatment with a protease such as pepsin; purchased KOKEN CO., LTD; KOKEN ATELOCOLLAGEN IMPLANT
Experimental: The following sugars were used as sugars to be added, and an ability of the sugar to suppress the gelation of a collagen solution was confirmed by measuring a fibrillogenesis time.
Monosaccharides: Glucose and Glucuronic Acid
(§1) Each of various sugar solutions was added to a collagen solution (pH 7.4, final concentration: 3% [w/v]) (KOKEN ATELOCOLLAGEN IMPLANT [KOKEN CO., LTD.]) so that the final concentration was 0.01 M, followed by mixing. The mixed solution was measured for its time-dependent change in absorbance at 400 nm with a spectrophotometer while being heated at 37° C.

KS collagen solution = assay: Influence of tetrasaccharide on gelation of 0.4% collagen solution (Reference Example 3(2)); format: physicochemical; settings: collagen 0.4% [w/v], pH 7; 0.05 M stachyose
Text: (2) The influence of a tetrasaccharide on a gelation ability was confirmed in the same manner as in the above-mentioned method (1) except that: the concentration of the collagen was changed to 0.4% [w/v]; and KS collagen (pH 3) adjusted to pH 7 with a neutralization liquid (7% [w/v] Na2HPO4, 0.9% [w/v] NaCl) was used as the collagen solution. 0.05 M stachyose was used as the tetrasaccharide in the same manner as in the method (1).

[4] = target: T2, collagen solution (KOKEN ATELOCOLLAGEN IMPLANT); assay: Spectroscopic evaluation of influence of sugar on gelation ability of collagen solution (Reference Example 1); format: physicochemical; settings: sucrose 0.01 or 0.25 M in collagen 3% [w/v], pH 7.4, 37° C., absorbance at 400 nm
Experimental: as §1, with “Specifically, a sucrose solution” for “Each of various sugar solutions”, “(product name: KOKEN” for “(KOKEN”, “IMPLANT)” for “IMPLANT [KOKEN CO., LTD.])”, “0, 0.01, or 0.25” for “0.01”

Type I atelocollagen = assay: Spectroscopic evaluation of influence of sugar on gelation of various collagen solutions (Reference Example 2); format: physicochemical, bovine, porcine; settings: 0.25 M sucrose, 1×PBS, 37° C., absorbance at 400 nm, 3 hours
Experimental: (§2) The influences of a sugar on the gelation abilities (fibrillogenic abilities) of various collagen solutions were investigated.
First, various collagens were each diluted to 0.2% [w/v] with 1 mM HCl. The various collagens used were as follows. • Type I atelocollagen (3.5% KAI: bovine, Lot. 1-107, pH 7) • Type I atelocollagen (3% KAI: porcine, stock of the laboratory, pH 7) • Type II atelocollagen (CL-22, Lot. 622052, pH 3) • Type III atelocollagen (NIP, 0.3% PSC-3-100-20, Lot. BSP310G001, 5 mM acetic acid) • Type I native collagen (1% 1-AC, Lot. 6002173, pH 3) • Shark atelocollagen (produced in the laboratory, powder, stored at −30° C.) […]
(§3) 100 μl of each of the prepared samples were added to a 96-well microplate and measured for its time-dependent change in absorbance at 400 nm (measurement interval: 30 seconds, measurement time: 3 hours) with an optical absorption microplate reader (TECAN, SUNRISE Thermo RC-R) while heated at 37° C. An average of the measured values (n=3) at the respective times was calculated.

Shark atelocollagen = assay: as above; format: physicochemical; settings: 0.25 M sucrose, 1×PBS, 37° C., absorbance at 400 nm, 3 hours
Experimental: as §2
(§4) First, various collagens were each diluted to 0.2% [w/v] with 1 mM HCl. The various collagens used were as follows. • Type I atelocollagen (3.5% KAI: bovine, Lot. 1-107, pH 7) • Type I atelocollagen (3% KAI: porcine, stock of the laboratory, pH 7) • Type II atelocollagen (CL-22, Lot. 622052, pH 3) • Type III atelocollagen (NIP, 0.3% PSC-3-100-20, Lot. BSP310G001, 5 mM acetic acid) • Type I native collagen (1% 1-AC, Lot. 6002173, pH 3) • Shark atelocollagen (produced in the laboratory, powder, stored at −30° C.)
(§5) Distilled water (OTSUKA DISTILLED WATER, Cat. 1324, Lot. 0J90N), 2.5 M sucrose (Wako Pure Chemical Industries, Ltd., Cat. 196-00015, Lot. CKM1674), 100 mg/mL lysozyme (Tokyo Chemical Industry Co., Ltd., Cat. L072), and 10×PBS (DULBECCO′PBS, Dainippon Sumitomo Pharma Co., Ltd., Cat. 28-103-05 FN, Lot. 896458) were added to each of the various collagen solutions at 0.2% [w/v] to prepare a solution having final concentrations of 0.2% [w/v] collagen/0.25 M sucrose/10 mg/mL lysozyme/1×PBS. At this time, the ingredients were added so that the collagen, distilled water, sucrose, lysozyme, and PBS were mixed in this order.
as §3

Type I native collagen = target: T3, Type I native collagen (Bos taurus, UniProt P02453+P02465); assay: as above; format: physicochemical; settings: 0.25 M sucrose, 1×PBS, 37° C., absorbance at 400 nm, 3 hours
T3 construct: Type I native collagen (1% 1-AC, Lot. 6002173, pH 3); purchased 1-AC, Lot; 6002173
Experimental: as §2, §4, §5, §3

Type II atelocollagen = target: T4, Type II atelocollagen (Bos taurus, UniProt P02459); assay: as above; format: physicochemical; settings: 0.25 M sucrose, 1×PBS, 37° C., absorbance at 400 nm, 3 hours
T4 construct: atelocollagen obtained by treatment with a protease such as pepsin; purchased CL-22, Lot; 622052
Experimental: as §2, §4, §5, §3

Type III atelocollagen = target: T5, Type III atelocollagen (Bos taurus, UniProt P04258); assay: as above; format: physicochemical; settings: 0.25 M sucrose, 1×PBS, 37° C., absorbance at 400 nm, 3 hours
T5 construct: atelocollagen obtained by treatment with a protease such as pepsin; purchased NIP PSC-3-100-20, Lot; BSP310G001
T5 sequence (P04258 15-1040 limits assumed): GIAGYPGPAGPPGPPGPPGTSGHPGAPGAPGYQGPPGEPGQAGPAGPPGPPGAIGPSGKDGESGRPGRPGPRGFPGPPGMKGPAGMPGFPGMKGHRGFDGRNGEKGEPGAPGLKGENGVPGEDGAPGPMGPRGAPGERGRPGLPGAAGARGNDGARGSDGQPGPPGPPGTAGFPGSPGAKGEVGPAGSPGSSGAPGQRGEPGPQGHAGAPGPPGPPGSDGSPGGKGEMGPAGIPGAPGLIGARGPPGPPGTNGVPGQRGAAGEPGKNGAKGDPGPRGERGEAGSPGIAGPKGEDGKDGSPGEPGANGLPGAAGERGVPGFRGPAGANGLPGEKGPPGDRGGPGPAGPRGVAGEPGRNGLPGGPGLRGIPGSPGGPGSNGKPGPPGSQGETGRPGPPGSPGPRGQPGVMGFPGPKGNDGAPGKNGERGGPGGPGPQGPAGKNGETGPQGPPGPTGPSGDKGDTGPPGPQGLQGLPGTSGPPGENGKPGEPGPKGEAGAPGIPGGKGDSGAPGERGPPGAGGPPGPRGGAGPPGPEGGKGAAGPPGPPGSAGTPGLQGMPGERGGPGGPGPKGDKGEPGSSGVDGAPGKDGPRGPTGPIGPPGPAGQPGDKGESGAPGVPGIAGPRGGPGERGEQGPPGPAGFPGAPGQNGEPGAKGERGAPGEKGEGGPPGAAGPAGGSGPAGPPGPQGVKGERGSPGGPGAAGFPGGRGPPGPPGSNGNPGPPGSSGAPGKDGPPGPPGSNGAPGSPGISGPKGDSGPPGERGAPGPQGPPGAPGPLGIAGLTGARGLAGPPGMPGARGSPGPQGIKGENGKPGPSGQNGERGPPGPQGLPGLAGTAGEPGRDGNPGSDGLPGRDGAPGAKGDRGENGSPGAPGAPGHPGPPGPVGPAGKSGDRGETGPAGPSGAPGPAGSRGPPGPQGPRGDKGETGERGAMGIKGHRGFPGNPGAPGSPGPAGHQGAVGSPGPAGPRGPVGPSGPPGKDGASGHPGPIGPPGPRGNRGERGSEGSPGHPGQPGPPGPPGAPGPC
Experimental: as §2, §4, §5, §3

[5] = In vivo drug sustained-release ability of thyroglobulin formulation (Example 11); settings: thyroglobulin (669 kDa) with atelocollagen 3% [w/v], sucrose 0.25 M; 100 μL subcutaneous in mice; afterwards low sustained-release rate
Text: The sustained-release amount of thyroglobulin was quantitatively measured by HPLC in a time-dependent manner.
3.5% [w/v] atelocollagen Lot. I-175, Kasai Lac, 2.5 M sucrose, and a 100-mg protein solution were mixed at a blending ratio of 8:1:1. First, syringes filled with atelocollagen and sucrose were connected in series on ice, followed by thorough mixing by reciprocation 50 times. The mixed liquid was mixed with the protein solution by syringe reciprocation 50 times immediately before subcutaneous injection into mice.
The mice were purchased from Japan SLC, Inc. ICR strain female mice were purchased at 7-week-old 1 week before use and used at 8-week old. The collagen mixed liquid was injected into three sites in an amount of 100 μL per site (n=3). Each of samples after 0, minutes, 30 minutes, 45 minutes, 1 hour, 3 hours, 6 hours, and 12 hours was extirpated and heated to 80° C. in an Eppendorf tube so as to denature the collagen into a solution form. Each of the samples was analyzed through use of Agilent HPLC and an SEC-4 gel filtration column to quantify the concentration of the protein in the gel. In the HPLC, thyroglobulin is eluted at 5.927 minutes.

T2 sequence (P02453 178-1191 limits assumed): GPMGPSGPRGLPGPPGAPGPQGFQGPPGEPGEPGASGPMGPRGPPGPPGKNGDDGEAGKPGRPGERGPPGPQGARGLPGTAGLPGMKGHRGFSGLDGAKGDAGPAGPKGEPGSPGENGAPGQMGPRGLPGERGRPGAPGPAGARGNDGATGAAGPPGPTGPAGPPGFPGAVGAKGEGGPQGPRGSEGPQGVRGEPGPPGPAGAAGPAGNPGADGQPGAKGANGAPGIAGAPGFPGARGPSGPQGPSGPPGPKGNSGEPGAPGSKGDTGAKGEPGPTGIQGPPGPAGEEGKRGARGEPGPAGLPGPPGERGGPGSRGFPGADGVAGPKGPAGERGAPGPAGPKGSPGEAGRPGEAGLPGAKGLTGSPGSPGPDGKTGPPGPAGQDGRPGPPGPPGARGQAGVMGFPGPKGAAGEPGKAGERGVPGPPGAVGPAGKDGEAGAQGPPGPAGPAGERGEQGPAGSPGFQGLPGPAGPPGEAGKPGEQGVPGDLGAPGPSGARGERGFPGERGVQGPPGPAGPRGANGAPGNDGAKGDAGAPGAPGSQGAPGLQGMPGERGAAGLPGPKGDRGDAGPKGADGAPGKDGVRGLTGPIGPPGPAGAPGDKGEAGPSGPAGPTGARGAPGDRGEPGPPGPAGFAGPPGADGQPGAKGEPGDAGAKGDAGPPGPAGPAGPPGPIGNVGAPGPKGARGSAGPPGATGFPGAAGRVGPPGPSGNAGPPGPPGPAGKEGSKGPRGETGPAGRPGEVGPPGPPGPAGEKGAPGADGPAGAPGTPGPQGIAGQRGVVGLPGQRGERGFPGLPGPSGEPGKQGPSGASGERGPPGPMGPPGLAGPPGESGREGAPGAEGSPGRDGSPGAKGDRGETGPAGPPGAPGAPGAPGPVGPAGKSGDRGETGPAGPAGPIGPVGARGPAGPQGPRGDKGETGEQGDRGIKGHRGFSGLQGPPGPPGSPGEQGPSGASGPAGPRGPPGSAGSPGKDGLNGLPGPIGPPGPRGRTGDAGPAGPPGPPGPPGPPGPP
T2 sequence (P02465 80-1117 limits assumed): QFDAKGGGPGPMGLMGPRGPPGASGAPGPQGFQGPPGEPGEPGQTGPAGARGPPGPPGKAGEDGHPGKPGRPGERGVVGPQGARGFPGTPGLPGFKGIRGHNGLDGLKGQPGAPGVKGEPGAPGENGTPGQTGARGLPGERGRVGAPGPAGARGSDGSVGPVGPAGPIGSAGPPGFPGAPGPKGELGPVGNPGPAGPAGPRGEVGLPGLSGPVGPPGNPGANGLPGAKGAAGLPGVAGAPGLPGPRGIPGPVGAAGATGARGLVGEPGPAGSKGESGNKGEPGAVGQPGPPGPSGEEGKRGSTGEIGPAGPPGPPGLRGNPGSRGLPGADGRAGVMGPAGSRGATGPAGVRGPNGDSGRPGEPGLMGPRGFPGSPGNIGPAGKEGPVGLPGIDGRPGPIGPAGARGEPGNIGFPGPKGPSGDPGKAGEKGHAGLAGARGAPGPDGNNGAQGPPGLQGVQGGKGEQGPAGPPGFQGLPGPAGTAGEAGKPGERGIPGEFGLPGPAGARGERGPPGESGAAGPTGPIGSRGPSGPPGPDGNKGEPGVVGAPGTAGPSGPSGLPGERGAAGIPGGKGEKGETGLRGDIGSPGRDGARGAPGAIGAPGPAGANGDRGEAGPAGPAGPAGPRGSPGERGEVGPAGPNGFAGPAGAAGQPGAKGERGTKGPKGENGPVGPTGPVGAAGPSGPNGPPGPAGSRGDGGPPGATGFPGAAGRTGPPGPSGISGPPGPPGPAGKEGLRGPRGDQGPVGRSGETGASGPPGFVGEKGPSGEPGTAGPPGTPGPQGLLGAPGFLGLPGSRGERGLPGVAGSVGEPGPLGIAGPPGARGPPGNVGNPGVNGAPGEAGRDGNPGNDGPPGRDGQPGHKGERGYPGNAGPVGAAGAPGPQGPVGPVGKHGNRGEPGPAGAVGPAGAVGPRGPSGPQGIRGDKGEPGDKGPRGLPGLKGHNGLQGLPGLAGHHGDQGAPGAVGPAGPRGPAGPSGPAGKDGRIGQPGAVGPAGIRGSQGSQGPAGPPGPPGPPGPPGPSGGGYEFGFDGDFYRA
T1 sequence (P02453 178-1191 limits assumed): as the sequence (P02453 178-1191 limits assumed) above
T1 sequence (P02465 80-1117 limits assumed): as the sequence (P02465 80-1117 limits assumed) above
T4 sequence (P02459 201-1214 limits assumed): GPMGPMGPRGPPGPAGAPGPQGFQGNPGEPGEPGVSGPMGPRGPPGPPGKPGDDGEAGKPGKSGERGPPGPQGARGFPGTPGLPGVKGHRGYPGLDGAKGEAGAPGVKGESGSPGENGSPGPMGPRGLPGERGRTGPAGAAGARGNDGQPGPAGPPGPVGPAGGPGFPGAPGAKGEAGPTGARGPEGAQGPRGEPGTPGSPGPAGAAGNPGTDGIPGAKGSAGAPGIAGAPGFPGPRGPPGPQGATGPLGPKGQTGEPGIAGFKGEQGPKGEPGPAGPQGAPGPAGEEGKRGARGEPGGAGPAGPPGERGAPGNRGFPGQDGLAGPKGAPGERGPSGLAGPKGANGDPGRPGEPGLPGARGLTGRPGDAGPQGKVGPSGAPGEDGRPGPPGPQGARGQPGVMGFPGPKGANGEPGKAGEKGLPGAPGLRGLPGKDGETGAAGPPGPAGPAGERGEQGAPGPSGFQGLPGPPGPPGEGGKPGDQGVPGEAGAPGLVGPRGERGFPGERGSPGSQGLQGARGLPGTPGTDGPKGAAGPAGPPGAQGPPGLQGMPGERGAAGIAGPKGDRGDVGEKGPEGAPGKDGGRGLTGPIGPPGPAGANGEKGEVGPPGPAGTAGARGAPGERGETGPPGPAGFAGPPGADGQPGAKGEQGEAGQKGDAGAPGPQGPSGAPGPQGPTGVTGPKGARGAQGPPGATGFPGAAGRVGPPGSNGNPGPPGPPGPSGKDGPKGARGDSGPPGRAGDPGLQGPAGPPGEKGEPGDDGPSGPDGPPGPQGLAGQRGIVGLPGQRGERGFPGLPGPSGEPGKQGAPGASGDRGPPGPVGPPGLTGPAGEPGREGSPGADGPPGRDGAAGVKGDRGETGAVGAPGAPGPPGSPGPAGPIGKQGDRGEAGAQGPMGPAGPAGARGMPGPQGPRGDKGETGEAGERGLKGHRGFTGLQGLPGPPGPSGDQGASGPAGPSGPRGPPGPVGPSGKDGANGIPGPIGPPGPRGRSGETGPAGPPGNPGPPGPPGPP
T3 sequence (P02465 80-1117): as the sequence (P02465 80-1117 limits assumed) above
T3 sequence (P02453 162-1217): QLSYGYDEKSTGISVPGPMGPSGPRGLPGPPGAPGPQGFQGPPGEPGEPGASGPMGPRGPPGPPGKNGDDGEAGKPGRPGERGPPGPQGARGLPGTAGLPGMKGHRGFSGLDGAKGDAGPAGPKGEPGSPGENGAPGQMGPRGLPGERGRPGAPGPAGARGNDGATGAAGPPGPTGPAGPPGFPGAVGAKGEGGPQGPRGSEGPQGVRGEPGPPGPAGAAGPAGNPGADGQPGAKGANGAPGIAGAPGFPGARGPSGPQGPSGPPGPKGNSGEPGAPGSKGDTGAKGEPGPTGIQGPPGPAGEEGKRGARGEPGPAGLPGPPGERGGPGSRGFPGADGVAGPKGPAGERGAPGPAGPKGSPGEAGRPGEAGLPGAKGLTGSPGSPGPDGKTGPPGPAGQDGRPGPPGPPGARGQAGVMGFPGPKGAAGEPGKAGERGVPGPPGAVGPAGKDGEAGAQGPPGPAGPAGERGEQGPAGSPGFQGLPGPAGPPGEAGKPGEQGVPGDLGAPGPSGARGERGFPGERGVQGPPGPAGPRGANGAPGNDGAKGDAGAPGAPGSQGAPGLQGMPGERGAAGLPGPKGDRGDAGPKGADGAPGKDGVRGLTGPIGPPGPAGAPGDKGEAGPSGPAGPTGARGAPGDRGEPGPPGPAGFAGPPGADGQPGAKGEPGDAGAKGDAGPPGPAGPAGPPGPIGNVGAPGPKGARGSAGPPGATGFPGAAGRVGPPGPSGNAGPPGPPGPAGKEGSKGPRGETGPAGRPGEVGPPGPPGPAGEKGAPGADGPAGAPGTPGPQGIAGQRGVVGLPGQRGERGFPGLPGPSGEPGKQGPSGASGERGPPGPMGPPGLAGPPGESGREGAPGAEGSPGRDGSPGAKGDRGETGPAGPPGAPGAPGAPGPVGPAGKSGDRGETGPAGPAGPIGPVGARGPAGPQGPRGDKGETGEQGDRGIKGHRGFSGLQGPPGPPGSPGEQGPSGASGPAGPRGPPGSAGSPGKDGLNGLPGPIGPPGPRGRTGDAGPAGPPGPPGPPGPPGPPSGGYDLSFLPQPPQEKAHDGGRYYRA

Compound: OC[C@H]1O[C@H](O[C@H]2[C@H](O)[C@@H](O)C(O)O[C@@H]2CO)[C@H](O)[C@@H](O)[C@@H]1O (mixture of isomers) [maltose]
suppression of gelation of collagen (fibrillogenesis time) [1]: suppressed in a concentration-dependent manner

fibrillogenesis suppressing effect (fibrillogenesis time) [2]: comparable to that of the monosaccharide
Compound: OC[C@H]1O[C@H](O[C@H]2[C@H](O)[C@@H](O)[C@@H](O[C@H]3[C@H](O)[C@@H](O)[C@@H](O[C@H]4[C@H](O)[C@@H](O)C(O)O[C@@H]4CO)O[C@@H]3CO)O[C@@H]2CO)[C@H](O)[C@@H](O)[C@@H]1O (some centres unmarked) [Maltotetraose, maltotetraose]

Compound: O=C(CO)[C@@H](O)[C@H](O)[C@H](O)CO [fructose]
suppression of gelation of collagen (fibrillogenesis time) [1]: suppressed in a concentration-dependent manner

Compound: O=C[C@H](O)[C@@H](O)[C@H](O)[C@H](O)C(=O)O [glucuronic acid]
gelation suppressing effect [3]: low gelation suppressing effect as compared to glucose

Compound: OC[C@H]1O[C@H](OC[C@H]2O[C@H](O[C@]3(CO)O[C@H](CO)[C@@H](O)[C@@H]3O)[C@H](O)[C@@H](O)[C@@H]2O)[C@H](O)[C@@H](O)[C@H]1O [raffinose]
suppression of gelation of collagen (fibrillogenesis time) [1]: delayed as compared to the case of adding no sugar

suppression of gelation of collagen (fibrillogenesis time) [1]: hardly confirmed | fibrillogenesis time of the collagen solution (KS collagen solution): delayed
Compound: OC[C@H]1O[C@H](OC[C@H]2O[C@H](OC[C@H]3O[C@H](O[C@]4(CO)O[C@H](CO)[C@@H](O)[C@@H]4O)[C@H](O)[C@@H](O)[C@@H]3O)[C@H](O)[C@@H](O)[C@H]2O)[C@H](O)[C@@H](O)[C@H]1O [stachyose]

influence on gelation of collagen solution (Type I atelocollagen): suppressed gelation | influence on gelation of collagen solution (Shark atelocollagen): suppressed gelation | influence on gelation of collagen solution (Type I native collagen): suppressed gelation | influence on gelation of collagen solution (Type II atelocollagen): suppressed gelation | influence on gelation of collagen solution (Type III atelocollagen): suppressed gelation | gelation suppressing effect [3]: high gelation suppressing effect
Compound: OC[C@H]1O[C@@](CO)(O[C@H]2O[C@H](CO)[C@@H](O)[C@H](O)[C@H]2O)[C@@H](O)[C@@H]1O [sucrose]
influence on gelation of collagen solution [4]: delayed in a sucrose concentration-dependent manner | suppression of gelation of collagen (fibrillogenesis time) [1]: suppressed in a concentration-dependent manner

fibrillogenesis suppressing effect (fibrillogenesis time) [2]: substantially no delay
Compound: maltopentaose

Compound: thyrogloblin: high molecular weight protein (669 kDa) used as drug in sucrose/atelocollagen formulation
period of fast release after the injection [5]: ≤ 3 h
